Tested on: KRAS PDC multicell spheroid viability
Experiment: Anticancer human tumor 521955-158-R6-J3-PDC patient-derived pancreatic carcinoma cell line growth inhibition [KRAS2]
Conditions: for IC50: curve of first compound; for viability, T/C: stronger effect = lower value
Description: Multicellular complex tumor spheroid response to RAS pathway inhibitors in combination with a targeted agents in patient-derived cell lines with oncogenic KRAS variants from multiple cancer types
A high-throughput screen of multi-cell type tumor spheroids was designed to identify active combinations of targeted small molecules and KRAS pathway inhibitors. Complex spheroids include a stromal component modeled by human endothelial cells (HUVEC) and fibroblasts modeled by human mesenchymal stem cells (MSCs). The concentration ranges selected for each drug and investigational agent were based upon clinically achievable concentrations if the clinical Cmax of the agent was known.
Compounds. The drugs and investigational agents: BI-3406 (NSC825286), BAY-293 (NSC824723), batoprotafib (TNO155; NSC825523), sotorasib (AMG 510; NSC818433), MRTX1257 (NSC819558), elimusertib (BAY 1895344; NSC800525), molibresib (GSK525762; NSC774829), temuterkib (LY3214996; NSC803410), venetoclax (NSC766270), alisertib (NSC759677), olaparib (NSC753686), talazoparib (NSC767125), erdafitinib (NSC781556), ipatasertib (NSC767898), cabozantinib (NSC761068), nintedanib (NSC756659), abemaciclib (NSC768073), docetaxel (NSC628503), trametinib (NSC758246), and sapanisertib (NSC764658) were obtained from the National Cancer Institute (NCI) Developmental Therapeutics Program Chemical Repository. The FDA-approved anticancer drug set is available from the Developmental Therapeutics Program. […] The stock solutions were prepared in dimethyl sulfoxide (DMSO, Sigma-Aldrich, St. Louis, MO, cat. D2650) at 800-fold the tested concentration and stored at -70 degrees C prior to their use. All drugs and investigational agents were tested over a range starting from a high concentration at or near the clinical Cmax and decreasing in half-log increments. If the clinical Cmax for an agent had not been determined, the highest concentration tested was 10 microM.
Cell Culture. All cells were maintained in an incubator at 37 degrees C and 5% CO2 with 95% humidity. The PDC lines were cultured according to standard operating procedures established by the NCI PDMR (https://pdmr.cancer.gov/sops/default.htm). Briefly, all PDCs were thawed and cultured in Matrigel-coated flasks prepared with a working solution of 1X Ham's F-12 nutrient mix, without supplementation (Invitrogen, Waltham, MA, cat. 11765054), 100 U/mL penicillin-streptomycin (Invitrogen, cat. 15140122), and 2.5% Matrigel (Corning Inc., Corning, NY, cat. 354248) for the first three passages. All PDCs were cultured in complete DMEM/F-12 media containing advanced DMEM/F-12 (Invitrogen, cat. 12634028), 4.9% defined fetal bovine serum, heat inactivated (HyClone Laboratories Inc., Logan, UT, cat. SH30070.03HI), 389 ng/mL hydrocortisone (Sigma-Aldrich, cat. H4001), 9.7 ng/mL human EGF recombinant protein (Invitrogen, cat. PHG0313), 23.4 microg/mL adenine (Sigma-Aldrich, cat. A2786), 97.3 U/mL penicillin-streptomycin (Invitrogen, cat. 15140122), 1.9 mM L-glutamine (Invitrogen, cat. 25030081), and 9.7 microM Y-27632 dihydrochloride (Tocris Bioscience, Bristol, United Kingdom, cat. 1254). The PDCs were cultured in complete DMEM/F12 media without 9.7 microM Y-27632 dihydrochloride for at least two passages prior to the screen. The established cell line HOP-62 was cultured in RPMI 1640 medium, HEPES (Invitrogen, cat. 22400105) with 10% defined fetal bovine serum (HyClone Laboratories Inc., cat. SH30070.03) and 2 mM L-glutamine (Invitrogen, cat. 25030081). The pooled donor HUVEC were cultured in endothelial cell growth medium 2 (PromoCell, Heidelberg, Germany, cat. C-22011) and the hMSC were cultured in mesenchymal stem cell growth medium 2 (PromoCell, cat. C-28009). For all experiments, HUVEC and hMSC were used at passages </=5, while the malignant cell lines were used at passages </=15. […]

[1] = second compound 0.1 µM, first compound 0.0316 µM
[2] = second compound 0.1 µM, first compound 0.1 µM
[3] = second compound 0.1 µM, first compound 0.316 µM
[4] = second compound 0.1 µM, first compound 1 µM
[5] = second compound 0.1 µM, first compound 3.16 µM
[6] = second compound 0.316 µM, first compound 0.0316 µM
[7] = second compound 0.316 µM, first compound 0.1 µM
[8] = second compound 0.316 µM, first compound 0.316 µM
[9] = second compound 0.316 µM, first compound 1 µM
[10] = second compound 0.316 µM, first compound 3.16 µM
[11] = second compound 1 µM, first compound 0.0316 µM
[12] = second compound 1 µM, first compound 0.1 µM
[13] = second compound 1 µM, first compound 0.316 µM
[14] = second compound 1 µM, first compound 1 µM
[15] = second compound 1 µM, first compound 3.16 µM
[16] = second compound 3.16 µM, first compound 0.0316 µM
[17] = second compound 3.16 µM, first compound 0.1 µM
[18] = second compound 3.16 µM, first compound 0.316 µM
[19] = second compound 3.16 µM, first compound 1 µM
[20] = second compound 3.16 µM, first compound 3.16 µM
[21] = second compound 10 µM, first compound 0.0316 µM
[22] = second compound 10 µM, first compound 0.1 µM
[23] = second compound 10 µM, first compound 0.316 µM
[24] = second compound 10 µM, first compound 1 µM
[25] = second compound 10 µM, first compound 3.16 µM
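Further: drug exposure lasted seven days.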
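Wherever viability, T/C is given: 100% = DMSO vehicle wells and lower means fewer viable cells.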

SMILES	IC50 (second compound 0.1 µM)	IC50 (second compound 0.316 µM)	IC50 (second compound 1 µM)	IC50 (second compound 3.16 µM)	IC50 (second compound 10 µM)	viability, T/C [1]	viability, T/C [2]	viability, T/C [3]	viability, T/C [4]	viability, T/C [5]	viability, T/C [6]	viability, T/C [7]	viability, T/C [8]	viability, T/C [9]	viability, T/C [10]	viability, T/C [11]	viability, T/C [12]	viability, T/C [13]	viability, T/C [14]	viability, T/C [15]	other results
CC1COCCN1c1cc(-c2ccnn2C)c2ccnc(-c3ccn[nH]3)c2n1 (stereo not given) + C=CC(=O)N1CCN(c2nc(=O)n(-c3c(C)ccnc3C(C)C)c3nc(-c4c(O)cccc4F)c(F)cc23)C(C)C1	> 3.16 µM	> 3.16 µM	> 3.16 µM	> 3.16 µM	> 3.16 µM	91%	76.7%	77.9%	73%	82.7%	98.4%	87.8%	95.1%	88%	91.9%	111%	96%	84.5%	79.6%	91.9%	viability, T/C (second compound 0.1 µM, first compound 0.01 µM): 97.3%; viability, T/C (second compound 0.316 µM, first compound 0.01 µM): 95%; viability, T/C (second compound 1 µM, first compound 0.01 µM): 91.7%; viability, T/C (second compound 3.16 µM, first compound 0.01 µM): 88.4%; viability, T/C [16]: 96.9%; viability, T/C [17]: 88.4%; viability, T/C [18]: 79.3%; viability, T/C [19]: 69.4%; viability, T/C [20]: 82.2%; viability, T/C (second compound 10 µM, first compound 0.01 µM): 77.6%; viability, T/C [21]: 69.5%; viability, T/C [22]: 71%; viability, T/C [23]: 57.2%; viability, T/C [24]: 67.2%; viability, T/C [25]: 66.9%
CC1OCC2(CCN(c3cnc(Sc4ccnc(N)c4Cl)c(N)n3)CC2)C1N (stereo not given) + C=CC(=O)N1CCN(c2nc(=O)n(-c3c(C)ccnc3C(C)C)c3nc(-c4c(O)cccc4F)c(F)cc23)C(C)C1	> 10 µM	> 10 µM	> 10 µM	> 10 µM	> 10 µM	99.6%	93.6%	99.6%	92%	106%	97.3%	94.4%	91.9%	96%	113%	98.7%	103%	102%	90.4%	124%	viability, T/C (second compound 0.1 µM, first compound 10 µM): 128%; viability, T/C (second compound 0.316 µM, first compound 10 µM): 116%; viability, T/C (second compound 1 µM, first compound 10 µM): 120%; viability, T/C [16]: 97.7%; viability, T/C [17]: 95.9%; viability, T/C [18]: 91.8%; viability, T/C [19]: 81.3%; viability, T/C [20]: 106%; viability, T/C (second compound 3.16 µM, first compound 10 µM): 108%; viability, T/C [21]: 75%; viability, T/C [22]: 75%; viability, T/C [23]: 62.5%; viability, T/C [24]: 54.8%; viability, T/C [25]: 70.4%; viability, T/C (second compound 10 µM, first compound 10 µM): 79%
